Tested on: HEK-293, SH-SY5Y, primary human keratinocytes, THP-1 differentiated with PMA
Test: Transcriptomics (microarray) after anatabine treatment of 4 cell systems
Assay type: cell-based
Details: for Fold Change TXNRD1: gene TXNRD1; for Fold Change ZBTB21: gene ZBTB21; for Fold Change ZFAND2A: gene ZFAND2A
Experimental: To investigate the signalling pathways triggered by anatabine, 4 cell systems (HEK-293, SH-SY5Y, primary human keratinocytes, THP-1 differentiated with PMA) were treated with 4 concentrations of anatabine (100, 200, 300, 400 μM) for 6 hours, after which transcriptomics measurements were performed.
HEK-293 is a human embryonic kidney cell line devoid of nicotinic receptors. It can be relatively easily transfected and therefore used as a tool to express various subtypes of nicotinic receptors or reporter genes such as NRF2-driven luciferase, which were also used in this study. HEK-293 were seeded in a cell culture medium consisting of EMEM, 10% FBS, 1% NEAA, 1% Sodium Pyruvate and 1% PenStrep. 60,000 cells were seeded per well of a 96-well plate.
SH-SY5Y is a human bone marrow neuroblastoma cell line that has been used by researchers to investigate the potential anti-inflammatory effect of anatabine. SH-SY5Y were seeded in a cell culture medium consisting of 50% EMEM and 50% Ham's F12 nutrient and including 10% FBS, 1% PenStrep and 1% L-glutamine. 15,000 cells were seeded per well of a 96-well plate.
Primary human keratinocytes have been included as a relevant cell system for skin. The batch of keratinocytes was selected in order to have healthy, non-smoker, 20-60 years old, Caucasian donors. The keratinocytes were seeded in a cell culture medium consisting of KGM-Gold Keratinocyte Growth Medium. 17,500 cells were seeded per well of a 96-well plate.
The human leukaemia-derived monocytic cell line THP-1, is the most widely used in vitro model for primary human macrophage investigations. THP-1 cells were seeded in a cell culture medium consisting of RPMI, 10% FBS and 1% PenStrep and in the presence of 40 ng/ml phorbol 12-myristate 13-acetate (PMA). 100,000 cells were seeded per well of a 96-well plate, having a total volume of […] per well. 48 hours later the medium was changed to the same culture medium but without PMA, and the culture was left to rest for 24 h before treatment.
All four cell systems were seeded in 96 well plates at a total volume of 190 μl per well to allow for a 20× compound stimulation with a volume of 10 μL. 24 hours after seeding—or in the case of THP-1, 24 h after changing to non-PMA medium—four cell systems were stimulated with anatabine (prepared at 20× the corresponding target concentration) to obtain a final molar concentration of 100, 200, 300, 400 μM anatabine.
In order to generate the transcriptomics data, the four cell systems were exposed to various concentrations of anatabine (100, 200, 300, 400 μM) for 6 hours. The transcriptome of the cells was analysed by a microarray-based analysis.
The cells were lysed using RLT BUFFER (Qiagen Hilden, Germany) for all cell types except the keratinocytes which were lysed with QIAZOL LYSIS REAGENT (Qiagen). RNA isolation was performed with RNEASY MICRO KIT (Qiagen). RNA quantification was assessed with a NANODROP 1000 (ThermoFisher Waltham, MA, USA) and quality of the total RNA was verified acquiring a profile with a 2100 BIOANALYZER (Agilent Technologies, Santa Clara, CA, USA), requiring an RIN number greater than 6.0. 50 ng of total RNA were processed as described in the TECAN/NUGEN OVATION RNA AMPLIFICATION SYSTEM V2 (Tecan Mannedorf, Switzerland). Human Genome U133 Plus 2.0 array were used for hybridization on a THERMOFISHER OVEN 645, washed on THERMOFISHER GENECHIP™ FLUIDICS STATIONS 450DX (protocol FS450-0004) and scanned on a THERMOFISHER GENECHIP™ SCANNER 3000 7G.
Quality control check of all chips was done with the BIOCONDUCTOR affyPLM R package version 1.64. Following quality control procedures, differential gene expression analysis was performed using the BIOCONDUCTOR LIMMA R package version 3.44.3. Pairwise comparisons at the gene level, called systems response profiles (SRP), were computed by comparing each concentration-treatment with its respective vehicle control. […]

[1] = cell system THP1, anatabine 200 μM
[2] = cell system THP1, anatabine 300 μM
[3] = cell system THP1, anatabine 400 μM
[4] = cell system HEK293, anatabine 100 μM
[5] = cell system HEK293, anatabine 200 μM
[6] = cell system HEK293, anatabine 300 μM
[7] = cell system HEK293, anatabine 400 μM
[8] = cell system KEAT, anatabine 100 μM
[9] = cell system KEAT, anatabine 200 μM
[10] = cell system KEAT, anatabine 300 μM
[11] = cell system KEAT, anatabine 400 μM
[12] = cell system SHSY5Y, anatabine 100 μM
[13] = cell system SHSY5Y, anatabine 200 μM
[14] = cell system SHSY5Y, anatabine 300 μM
[15] = cell system SHSY5Y, anatabine 400 μM
[16] = cell system THP1, anatabine 100 μM

C1=CCC(c2cccnc2)NC1 (racemic) [anatabine, 1,2,3,6-Tetrahydro-2,3′-bipyridine]
Fold Change (G0S2 gene, SHSY5Y, anatabine 200 μM): −0.07408 | Fold Change (G0S2 gene, SHSY5Y, anatabine 300 μM): −0.1621 | Fold Change (G0S2 gene, SHSY5Y, anatabine 400 μM): −0.6623 | Fold Change (G0S2 gene, THP1, anatabine 100 μM): −0.1613 | Fold Change (G0S2 gene, THP1, anatabine 200 μM): −0.07473 | Fold Change (G0S2 gene, THP1, anatabine 300 μM): −0.2674 | Fold Change (G0S2 gene, THP1, anatabine 400 μM): −0.3675 | Fold Change (GCLM gene, HEK293, anatabine 100 μM): 0.1086 | Fold Change (GCLM gene, HEK293, anatabine 200 μM): 0.5976 | Fold Change (GCLM gene, HEK293, anatabine 300 μM): 0.7652 | Fold Change (GCLM gene, HEK293, anatabine 400 μM): 1.165 | Fold Change (GCLM gene, KEAT, anatabine 100 μM): 0.5698 | Fold Change (GCLM gene, KEAT, anatabine 200 μM): 0.8549 | Fold Change (GCLM gene, KEAT, anatabine 300 μM): 1.582 | Fold Change (GCLM gene, KEAT, anatabine 400 μM): 1.567 | Fold Change (GCLM gene, SHSY5Y, anatabine 100 μM): 0.3907 | Fold Change (GCLM gene, SHSY5Y, anatabine 200 μM): 0.7053 | Fold Change (GCLM gene, SHSY5Y, anatabine 300 μM): 1.629 | Fold Change (GCLM gene, SHSY5Y, anatabine 400 μM): 2.292 | Fold Change (GCLM gene, THP1, anatabine 100 μM): 0.2992 | Fold Change (GCLM gene, THP1, anatabine 200 μM): 0.7816 | Fold Change (GCLM gene, THP1, anatabine 300 μM): 1.645 | Fold Change (GCLM gene, THP1, anatabine 400 μM): 2.36 | Fold Change (HMOX1 gene, HEK293, anatabine 100 μM): 0.7745 | Fold Change (HMOX1 gene, HEK293, anatabine 200 μM): 1.877 | Fold Change (HMOX1 gene, HEK293, anatabine 300 μM): 2.27 | Fold Change (HMOX1 gene, HEK293, anatabine 400 μM): 3.142 | Fold Change (HMOX1 gene, KEAT, anatabine 100 μM): 3.914 | Fold Change (HMOX1 gene, KEAT, anatabine 200 μM): 4.283 | Fold Change (HMOX1 gene, KEAT, anatabine 300 μM): 5.733 | Fold Change (HMOX1 gene, KEAT, anatabine 400 μM): 5.633 | Fold Change (HMOX1 gene, SHSY5Y, anatabine 100 μM): 0.8699 | NRF2 target genes (HMOX1, GCLM, NQO1, TXNRD1) mRNA (four cell lines, 100, 200, 300, 400 μM for 6 hours): dose-dependent increase | Fold Change TXNRD1 [1]: 0.4137 | Fold Change TXNRD1 [2]: 0.8364 | Fold Change TXNRD1 [3]: 1.246 | Fold Change ZBTB21 [4]: 0.1286 | Fold Change ZBTB21 [5]: 0.3704 | Fold Change ZBTB21 [6]: 0.3353 | Fold Change ZBTB21 [7]: 0.6783 | Fold Change ZBTB21 [8]: 0.4558 | Fold Change ZBTB21 [9]: 0.5643 | Fold Change ZBTB21 [10]: 0.9994 | Fold Change ZBTB21 [11]: 0.8602 | Fold Change ZBTB21 [12]: 0.1782 | Fold Change ZBTB21 [13]: 0.5134 | Fold Change ZBTB21 [14]: 0.6287 | Fold Change ZBTB21 [15]: 0.9685 | Fold Change ZBTB21 [16]: −0.01334 | Fold Change ZBTB21 [1]: 0.2576 | Fold Change ZBTB21 [2]: 0.3746 | Fold Change ZBTB21 [3]: 0.5865 | Fold Change ZFAND2A [4]: 0.1376 | Fold Change ZFAND2A [5]: 0.3375 | Fold Change ZFAND2A [6]: 0.4979 | Fold Change ZFAND2A [7]: 0.7014 | Fold Change ZFAND2A [8]: 0.2592 | Fold Change ZFAND2A [9]: 0.4658 | Fold Change ZFAND2A [10]: 3.354 | Fold Change ZFAND2A [11]: 1.766 | Fold Change ZFAND2A [12]: 0.09166 | Fold Change ZFAND2A [13]: 0.3919 | Fold Change ZFAND2A [14]: 0.5328 | Fold Change ZFAND2A [15]: 1.066 | Fold Change ZFAND2A [16]: 0.1252 | Fold Change ZFAND2A [1]: 0.2497 | Fold Change ZFAND2A [2]: 0.5677 | Fold Change ZFAND2A [3]: 1.236

Reference: US20260224547A1, “COMPOSITIONS COMPRISING ANATABINE AND USES THEREOF” (Philip Morris Products S.A., priority 2021, published 2026)
